Experimental data taken from patent publication US20120165309A1, “HETERO RING DERIVATIVE” (Astellas Pharma Inc., priority 2009, published 2012).
Where a name gives a salt, the structure may show the parent alone.

Legend:
[1] = biological target: T1, human PI3Kδ enzyme (Homo sapiens, UniProt O00329); assay: PI3Kδ enzyme inhibitory activity (PI3-Kinase HTRF Assay kit); format: biochemical; conditions: human PI3Kδ 10 ng/well, ATP 30 μM, PIP2 10 μM, room temperature 30 minutes
T1 construct: purchased Millipore Corporation 14-604
T1 sequence (O00329 whole entry): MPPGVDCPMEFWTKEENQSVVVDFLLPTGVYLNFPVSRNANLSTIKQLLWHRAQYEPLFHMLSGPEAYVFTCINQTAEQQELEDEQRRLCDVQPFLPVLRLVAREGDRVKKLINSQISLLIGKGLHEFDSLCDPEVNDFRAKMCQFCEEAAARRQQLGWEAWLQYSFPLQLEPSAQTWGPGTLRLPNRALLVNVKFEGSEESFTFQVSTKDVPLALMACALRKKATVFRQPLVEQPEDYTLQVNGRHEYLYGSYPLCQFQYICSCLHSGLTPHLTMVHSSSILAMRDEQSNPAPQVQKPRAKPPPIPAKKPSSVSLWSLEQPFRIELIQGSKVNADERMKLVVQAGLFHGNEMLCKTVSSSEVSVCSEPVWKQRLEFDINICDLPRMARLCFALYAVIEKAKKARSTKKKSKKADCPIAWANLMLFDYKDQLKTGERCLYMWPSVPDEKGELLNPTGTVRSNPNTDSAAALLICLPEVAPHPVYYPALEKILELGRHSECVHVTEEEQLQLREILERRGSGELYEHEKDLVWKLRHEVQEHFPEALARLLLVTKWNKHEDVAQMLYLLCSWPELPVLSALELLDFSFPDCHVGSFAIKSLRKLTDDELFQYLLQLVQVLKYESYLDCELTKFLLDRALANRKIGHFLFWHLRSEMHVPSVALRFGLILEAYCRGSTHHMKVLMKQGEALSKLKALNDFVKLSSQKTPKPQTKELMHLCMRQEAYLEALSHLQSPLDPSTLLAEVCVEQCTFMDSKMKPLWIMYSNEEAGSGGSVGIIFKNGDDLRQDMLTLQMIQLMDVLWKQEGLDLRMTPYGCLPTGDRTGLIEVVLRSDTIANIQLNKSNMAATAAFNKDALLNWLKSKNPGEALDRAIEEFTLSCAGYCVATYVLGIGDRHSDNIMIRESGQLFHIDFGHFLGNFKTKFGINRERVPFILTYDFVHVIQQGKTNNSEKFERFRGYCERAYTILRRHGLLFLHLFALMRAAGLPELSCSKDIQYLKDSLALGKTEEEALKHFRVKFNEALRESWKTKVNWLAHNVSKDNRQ
T1 sequence (P27986 whole entry partner): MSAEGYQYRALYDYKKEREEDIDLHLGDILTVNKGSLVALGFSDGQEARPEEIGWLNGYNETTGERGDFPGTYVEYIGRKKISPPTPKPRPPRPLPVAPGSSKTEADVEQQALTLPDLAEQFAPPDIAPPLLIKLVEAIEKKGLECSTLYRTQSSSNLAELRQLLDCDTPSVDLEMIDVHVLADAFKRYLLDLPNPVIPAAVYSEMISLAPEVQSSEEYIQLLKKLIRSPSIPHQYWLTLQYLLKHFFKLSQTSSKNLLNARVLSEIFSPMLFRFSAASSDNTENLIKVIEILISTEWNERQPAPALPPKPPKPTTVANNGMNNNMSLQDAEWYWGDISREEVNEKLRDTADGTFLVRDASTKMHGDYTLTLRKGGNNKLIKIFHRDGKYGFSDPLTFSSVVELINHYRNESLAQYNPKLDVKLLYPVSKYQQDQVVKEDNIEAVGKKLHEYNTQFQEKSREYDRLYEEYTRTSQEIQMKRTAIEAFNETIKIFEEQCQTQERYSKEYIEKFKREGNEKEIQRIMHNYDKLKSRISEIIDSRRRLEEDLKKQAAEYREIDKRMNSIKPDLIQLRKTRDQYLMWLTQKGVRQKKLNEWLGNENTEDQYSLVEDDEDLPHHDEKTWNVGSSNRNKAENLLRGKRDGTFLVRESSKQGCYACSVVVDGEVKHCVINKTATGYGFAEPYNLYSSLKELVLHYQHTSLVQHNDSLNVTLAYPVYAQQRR
Description: 1. PI3Kδ Enzyme Inhibitory Activity
For the experiment, a PI3-Kinase HTRF Assay kit (Millipore Corporation, Catalogue No. 33-016) and a human PI3Kδ enzyme (Millipore Corporation, Catalogue No. 14-604) were used. The measurement method was in accordance with the appended instructions. The overview thereof is as follows.
PI3Kδ (10 ng/well), phosphatidylinositol-4,5-bisphosphate (10 μM), ATP (30 μM), and the test compound were mixed in a 384-well plate (total 20 μL), and incubated at room temperature for 30 minutes. EDTA and biotinylated phosphatidylinositol-3,4,5-triphosphate were added thereto to stop the reaction. Thereafter, a Europium labeled anti-GST antibody, a GST bond GRP1 PH domain, and streptavidin-APC were added thereto, followed by incubation overnight. An HTRF ratio was measured using an HTRF plate reader. The IC50 value of the compound was calculated, taking the inhibition rate without addition of the enzyme as 100% and the inhibition rate without addition of the test compound as 0%, by means of a logistic method.
(§1) In the Table, Ex represents Example Compound No. as described later, PI3Kδ represents the IC50 value (nM) of a PI3Kδ enzyme inhibitory activity, and PI3Kα represents the IC50 value (nM) of a PI3Kα enzyme inhibitory activity.

[2] = biological target: T2, Human PI3Kα (Homo sapiens, UniProt P42336); assay: PI3Kα enzyme inhibitory activity (Kinase-Glo Plus luminescence); format: biochemical; conditions: Human PI3Kα 12 ng/well, phosphatidylinositol 0.2 μg/well, 37° C. for 3 hours
T2 construct: purchased Millipore Corporation 14-602
T2 sequence (P42336 whole entry): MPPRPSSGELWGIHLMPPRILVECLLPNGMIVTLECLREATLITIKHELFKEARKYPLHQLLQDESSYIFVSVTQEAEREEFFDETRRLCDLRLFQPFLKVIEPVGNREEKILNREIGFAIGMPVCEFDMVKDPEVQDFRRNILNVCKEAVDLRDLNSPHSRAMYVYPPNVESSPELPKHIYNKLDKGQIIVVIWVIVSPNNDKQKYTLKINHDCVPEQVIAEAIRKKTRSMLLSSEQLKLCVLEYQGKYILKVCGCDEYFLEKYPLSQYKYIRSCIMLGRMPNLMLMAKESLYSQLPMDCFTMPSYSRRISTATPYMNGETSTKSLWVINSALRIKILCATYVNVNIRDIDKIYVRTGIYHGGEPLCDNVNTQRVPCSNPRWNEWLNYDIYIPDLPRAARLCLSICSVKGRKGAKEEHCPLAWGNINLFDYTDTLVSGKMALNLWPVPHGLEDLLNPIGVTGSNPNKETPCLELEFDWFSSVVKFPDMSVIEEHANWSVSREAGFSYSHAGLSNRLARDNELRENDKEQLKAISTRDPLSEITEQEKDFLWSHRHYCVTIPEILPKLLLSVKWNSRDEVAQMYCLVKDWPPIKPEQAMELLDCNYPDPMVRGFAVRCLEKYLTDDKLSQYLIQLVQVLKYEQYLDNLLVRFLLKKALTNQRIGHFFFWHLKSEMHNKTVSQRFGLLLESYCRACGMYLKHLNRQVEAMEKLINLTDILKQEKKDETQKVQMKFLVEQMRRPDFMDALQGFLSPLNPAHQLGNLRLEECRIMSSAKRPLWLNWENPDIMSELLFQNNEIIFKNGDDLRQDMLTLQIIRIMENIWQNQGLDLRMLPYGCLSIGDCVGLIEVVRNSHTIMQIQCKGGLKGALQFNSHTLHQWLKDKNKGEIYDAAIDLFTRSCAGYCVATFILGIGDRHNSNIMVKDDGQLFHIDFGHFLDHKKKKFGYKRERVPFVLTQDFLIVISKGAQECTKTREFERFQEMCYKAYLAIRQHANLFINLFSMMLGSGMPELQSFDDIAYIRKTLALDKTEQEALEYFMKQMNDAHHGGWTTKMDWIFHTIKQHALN
T2 sequence (P27986 whole entry partner): as the sequence (P27986 whole entry partner) above
Description: 2. PI3Kα Enzyme Inhibitory Activity
Human PI3Kα (12 ng/well, Millipore Corporation, Catalogue No. 14-602), phosphatidylinositol (0.2 μg/well), and the test compound were mixed in a 384-well plate in a reaction buffer (50 mM Hepes, 10 mM NaCl, 10 mM MgCl2, 2 mM EGTA, 2 mM DTT, pH 7.3) (total 10 μl), and incubated at 37° C. for 3 hours. After the reaction, 10 μL of a Kinase-Glo Plus reagent (Promega, Catalogue No. V3772) was added thereto, and a luminescence was measured with a luminometer. The IC50 value of the compound was calculated, taking the inhibition rate without addition of the enzyme as 100% and the inhibition rate without addition of the test compound as 0%, by a logistic method.
as §1

[3] = system: IL-2 production; assay: Rat in vivo IL-2 production inhibition test (Concanavalin A induced); conditions: po, male LEW/CrlCrlj rats, 10 mg/kg orally, 2 hours before Concanavalin A 15 mg/kg i.v., blood IL-2 at 3 hours after Concanavalin A, read-out: IL-2 production inhibition activity (inhibition rate vs vehicle control)
Description: 3. Rat In vivo IL-2 Production Inhibition Test
For the experiment, male LEW/CrlCrlj rats (Charles River Laboratories, Japan, Inc.) (6-week old, body weight 130 to 180 g) were used. The test compound was suspended in a 0.5% methyl cellulose solution and orally administered at 5 mL/kg. IL-2 production was induced by tail vein injection of Concanavalin A (Funakoshi Corporation, Catalogue No. L-1000) at a dose of 15 mg/kg.
The test was carried out according to the protocol shown below. At 2 hours or 16 hours before administration of Concanavalin A, the test compound was orally administered to rats. At 3 hours after administration of Concanavalin A, blood was collected. The IL-2 concentration in blood was quantified using an ELISA kit (R&D Systems, Inc., Catalogue No. DY502E). An inhibition rate was calculated from the amount of IL-2 produced in a group administered with the test compound with respect to the amount of the IL-2 produced of a control group administered with a vehicle.

[4] = system: Spleen cells (B cell proliferation); assay: Rat B cell proliferation inhibition test (anti-rat IgM, [3H]thymidine); format: cell-based; conditions: anti-rat IgM 3 μg/well, 48 hours culture, [3H]thymidine uptake
Description: 4. Rat B Cell Proliferation Inhibition Test
Spleen cells (1.0×10^5 cells/well) prepared from male LEW/CrlCrlj rats (Charles River Laboratories, Japan, Inc.), mouse F(ab′)2 fragment anti-rat IgM (3 μg/well, SouthernBiotech Associates, Inc., Catalogue No. 3082-14) and the test compound dissolved in DMSO (final DMSO concentration 0.1%) were mixed in a 96-well plate using a 10% FCS-containing RPMI-1640 culture medium (total 200 μL). They were cultured in a CO2 incubator for 48 hours and [^3H]thymidine (925 GBq/mmol, Moravek Biochemicals, Inc., Catalogue No. MT6038) was added thereto at 0.037 MBq/well at 4 hours before completion of culture. Cells were harvested in a GF/C glass filter using a cell harvester, and a radioactivity on the filter was measured using a liquid scintillation counter. The IC50 value of the compound was calculated, taking the dpm (disintegration per minute) without addition of IgM as an inhibition rate of 100% and the dpm without addition of the test compound as an inhibition rate of 0%, by a logistic method.

IC50 [1]	IC50 [2]	SMILES	inhibition in vivo at 10 mg/kg [3]	IC50 [4]
33 nM	2000 nM	CN(C)[C@H]1CC[C@H](Nc2nc(N3CCOCC3)nc(-n3c(C(F)F)nc4ccccc43)n2)CC1 [Example 4, trans-N′-{4-[2-(difluoromethyl)-1H-benzimidazol-1-yl]-6-morpholin-4-yl-1,3,5-triazin-2-yl}-N,N-dimethylcyclohexane-1,4-diamine]	83%	1.8 nM
14 nM	930 nM	O=C1CCCN1[C@H]1CC[C@H](Nc2nc(N3CCOCC3)cc(-n3c(C(F)F)nc4ccccc43)n2)CC1 [Example 11, 1-[trans-4-({4-[2-(difluoromethyl)-1H-benzimidazol-1-yl]-6-morpholin-4-ylpyrimidin-2-yl}amino)cyclohexyl]pyrrolidin-2-one]	80%	6.1 nM
5.2 nM	> 3000 nM	CN(C)CC(=O)N[C@H]1CC[C@H](Oc2cc(-n3c(C(F)F)nc4ccccc43)nc(N3CCOCC3)n2)CC1 [Example 24, N-[trans-4-({6-[2-(difluoromethyl)-1H-benzimidazol-1-yl]-2-morpholin-4-ylpyrimidin-4-yl}oxy)cyclohexyl]-N,N-dimethylglycinamide hydrochloride]	79%	4.2 nM
–	1200 nM	CN(C)CC(=O)N[C@H]1CC[C@H](Nc2nc(N3CCOCC3)nc(-n3c(C(F)F)nc4ccccc43)n2)CC1 [Example 40]	94%	–
44 nM	> 3000 nM	CN(C)CC(=O)N[C@H]1CC[C@H](Nc2cc(-n3c(C(F)F)nc4ccccc43)nc(N3CCOCC3)n2)CC1 [Example 46]	71%	5.2 nM
4.4 nM	3300 nM	CN(CCF)[C@H]1CC[C@H](CNc2nc(N3CCOCC3)cc(-n3c(C(F)F)nc4ccccc43)n2)CC1 [Example 206]	83%	4.1 nM
14 nM	6000 nM	COCCN(C)[C@H]1CC[C@H](CNc2nc(N3CCOCC3)cc(-n3c(C(F)F)nc4ccccc43)n2)CC1 [Example 219]	78%	3.5 nM
14 nM	6700 nM	CN(CC(C)(C)O)[C@H]1CC[C@H](CNc2cc(-n3c(C(F)F)nc4ccccc43)nc(N3CCOCC3)n2)CC1 [Example 495]	–	1.7 nM
17 nM	7600 nM	COCCN[C@H]1CC[C@H](CNc2cc(-n3c(C(F)F)nc4ccccc43)nc(N3CCOCC3)n2)CC1 [Example 496]	–	1.7 nM
14 nM	> 10000 nM	CN1CCC[C@H]1C(=O)N[C@H]1CC[C@H](Oc2cc(-n3c(C(F)F)nc4ccccc43)nc(N3CCOCC3)n2)CC1 [Example 500]	–	2.7 nM
7.6 nM	2200 nM	FC[C@@H]1CCN1[C@H]1CC[C@H](CNc2cc(-n3c(C(F)F)nc4ccccc43)nc(N3CCOCC3)n2)CC1 [Example 539]	–	0.84 nM
50 nM	5500 nM	C[C@@H]1COCCN1[C@H]1CC[C@H](CNc2cc(-n3c(C(F)F)nc4ccccc43)nc(N3CCOCC3)n2)CC1 [Example 546]	–	2.2 nM

The remaining lines, values behind:

SMILES	IC50 [1]	IC50 [2]	inhibition in vivo at 10 mg/kg [3]	IC50 [4]
CC(=O)N[C@H]1CC[C@H](Nc2nc(N3CCOCC3)cc(-n3c(C(F)F)nc4ccccc43)n2)CC1 [Example 194]	–	–	89%	–
FC(F)c1nc2ccccc2n1-c1cc(N2CCOCC2)nc(NC[C@H]2CC[C@H](N3CCOCC3)CC2)n1 [Example 201]	–	–	76%	–
FC(F)c1nc2ccccc2n1-c1cc(N2CCOCC2)nc(NC[C@H]2CC[C@H](N3CCCCC3)CC2)n1 [Example 202]	–	–	80%	–
CC(C)(O)[C@@H]1CCCN1C1CCC(CNc2nc(N3CCOCC3)cc(-n3c(C(F)F)nc4ccccc43)n2)CC1 (some centres unmarked) [Example 490]	9.4 nM	1600 nM	–	0.76 nM
C=CCN(C(C)COC)[C@H]1CC[C@H](CNc2nc(N3CCOC[C@@H]3C)cc(-n3c(C(F)F)nc4ccccc43)n2)CC1 (some centres unmarked) [Example 491]	4.5 nM	570 nM	–	1.8 nM
CC(N(C)[C@H]1CC[C@H](CNc2nc(N3CCOC[C@@H]3C)cc(-n3c(C(F)F)nc4ccccc43)n2)CC1)C(C)(C)O (some centres unmarked) [Example 505]	4.1 nM	450 nM	–	0.46 nM
CC(N(C)[C@H]1CC[C@H](CNc2nc(N3CCOC[C@H]3C)cc(-n3c(C(F)F)nc4ccccc43)n2)CC1)C(C)(C)O (some centres unmarked) [Example 506]	4.3 nM	590 nM	–	0.75 nM
COCC(C)N(C)[C@H]1CC[C@H](CNc2nc(N3CCOC[C@H]3C)cc(-n3c(C(F)F)nc4ccccc43)n2)CC1 (some centres unmarked) [Example 507]	4.9 nM	490 nM	–	0.38 nM
CCN(C(C)COC)[C@H]1CC[C@H](CNc2nc(N3CCOC[C@H]3C)cc(-n3c(C(F)F)nc4ccccc43)n2)CC1 (some centres unmarked) [Example 508]	4.6 nM	620 nM	–	0.37 nM
FC[C@H]1CCCN1[C@H]1CC[C@@H](CNc2cc(-n3c(C(F)F)nc4ccccc43)nc(N3CCOCC3)n2)CC1 [Example 510]	36 nM	> 10000 nM	–	18 nM
FC[C@H]1CCCN1[C@H]1CC[C@H](CNc2cc(-n3c(C(F)F)nc4ccccc43)nc(N3CCOCC3)n2)CC1 [Example 511]	4.7 nM	2000 nM	–	1.2 nM
COC[C@@H]1CCCN1[C@H]1CC[C@@H](CNc2cc(-n3c(C(F)F)nc4ccccc43)nc(N3CCOCC3)n2)CC1 [Example 512]	23 nM	> 10000 nM	–	10 nM
COC[C@@H]1CCCN1[C@H]1CC[C@H](CNc2cc(-n3c(C(F)F)nc4ccccc43)nc(N3CCOCC3)n2)CC1 [Example 513]	3.5 nM	3100 nM	–	0.64 nM
FC[C@@H]1CCCN1[C@H]1CC[C@H](CNc2nc(N3CCOCC3)cc(-n3c(C(F)F)nc4ccccc43)n2)CC1 [Example 515]	6 nM	1200 nM	–	4.1 nM
FC(F)c1nc2ccccc2n1-c1cc(NC[C@H]2CC[C@H](N3CCC[C@H]3CN3CCCC3)CC2)nc(N2CCOCC2)n1 [Example 527]	14 nM	5700 nM	–	2.8 nM
